Data taken from patent US11999803B2, “Proteasome inhibitors” (University of Kentucky Research Foundation, priority 2018, dated 2024).

Assays:
LMP2 [1] = test: LMP2 inhibition (figure legend); type: biochemical
[2] = tested on: APP transgenic mouse model of AD (Tg2576); test: Probe trial in Tg2576 mice; type: in vivo; settings: Student's t-test, p-value<0.05, n=8
Protocol: (§1) FIG. 1A includes a schematic illustration showing the experimental schedule for a behavior test to assess cognitive impairment following administration of YU102 or YU102 epimer, as compared to control. YU102 is an inhibitor of the immunoproteasome subunit LMP2.
(§2) With reference to FIG. 1C, upon the completion of the Morris water maze test, Tg2576 mice were evaluated in the probe trial (left) and passive avoidance test (right). Statistical analyses of probe trial and passive avoidance were performed via Student's t-test.

[3] = tested on: APP transgenic mouse model of AD (Tg2576); test: Passive avoidance test in Tg2576 mice; type: in vivo; settings: Student's t-test, p-value<0.05, n=8
Protocol: as §1, §2

[4] = tested on: LPS-stimulated BV-2 cells; test: Cytokine and chemokine protein array in LPS-stimulated BV-2 cells; type: cell-based; settings: 3 μM with LPS (1 μg/mL)
Protocol: With reference to FIG. 2, cytokine production was assessed in LPS-stimulated BV-2 cells. Cytokine and chemokine protein array blots were obtained from BV-2 cells treated with vehicle, LPS (1 μg/mL) alone, and YU102 (3 μM) or ONX0914 (3 μM) with LPS (1 μg/mL). The signal intensity of each cytokine or chemokine was expressed relative to the mean of the intensity of the corresponding spots from vehicle control sample. The bar graph depicts the fold change of each cytokine or chemokine (mean).

[5] = tested on: APP transgenic mouse model of AD (Tg2576); test: Morris water maze test in Tg2576 mice; type: in vivo
Protocol: as §1
With reference to FIG. 1B, cognitive function in Tg2576 mice was evaluated by the Morris water maze test, and escape latency time (left) and escape distance of the mice (right) was assessed. Statistical analyses of escape latency and escape distance were performed via two-way ANOVA.

LMP2 [6] = target: T1, LMP2 (Mus musculus, UniProt P28076); test: Proteasome activities in tissue of treated mice, fluorogenic substrates; type: in vivo; settings: Tg2576 mice, p-value<0.05, n=3
T1 construct: proteasome activities in brain, spleen, and liver tissue collected from mice treated with vehicle (control), YU102 (10 mg/kg); from tissue; host or cells: brain, spleen and liver tissue of Tg2576 mice
Protocol: With reference to FIG. 1D, proteasome activities in brain, spleen, and liver tissue collected from mice treated with vehicle (control), YU102 (10 mg/kg), or YU102 epimer (10 mg/kg) were measured using fluorogenic substrates.

SMILES	LMP2 inhibition (LMP2 [1])	time spent in target quadrant, difference between control and treated mice [2]	step through latency, difference between control and treated mice [3]	cytokine production [4]	cognitive deficits ([5]; APPsw (Tg2576) mice, FIGS. 1A-1D)	escape distance, difference between control and treated mice ([5]; Tg2576 mice, days 3-5, two-way ANOVA, p-value<0.05, n=8)	LMP2 inhibitory activity in spleen and liver tissues, difference between YU102-treated and YU102 epi-treated group (LMP2 [6]; 10 mg/kg each)	LMP2 inhibitory activity in spleen and liver tissues, difference between control and treated group (LMP2 [6]; 10 mg/kg)
CC(=O)NCC(=O)N1CCC[C@H]1C(=O)N[C@@H](Cc1ccccc1)C(=O)N[C@@H](CC(C)C)C(=O)[C@]1(C)CO1 [YU102 epi]	does not inhibit LMP2							
CC(=O)NCC(=O)N1CCC[C@H]1C(=O)N[C@@H](Cc1ccccc1)C(=O)N[C@@H](CC(C)C)C(=O)[C@@]1(C)CO1 [YU102]	selective LMP2 inhibitor	statistically significant	statistically significant	suppression of cytokine production	amelioration of cognitive deficits	statistically significant	statistically significant	statistically significant
